The compounds below were run against human NaV subtype, like NaV 1.7 (Homo sapiens, UniProt Q15858) (assay: E-VIPR optical membrane potential assay with electrical stimulation). Conditions: active against one or more sodium channels; Table 3 does not name the assay or NaV subtype; read-out: Binned Activity Data (IC50).
Chain of human NaV subtype, like NaV 1.7 (Q15858 whole entry): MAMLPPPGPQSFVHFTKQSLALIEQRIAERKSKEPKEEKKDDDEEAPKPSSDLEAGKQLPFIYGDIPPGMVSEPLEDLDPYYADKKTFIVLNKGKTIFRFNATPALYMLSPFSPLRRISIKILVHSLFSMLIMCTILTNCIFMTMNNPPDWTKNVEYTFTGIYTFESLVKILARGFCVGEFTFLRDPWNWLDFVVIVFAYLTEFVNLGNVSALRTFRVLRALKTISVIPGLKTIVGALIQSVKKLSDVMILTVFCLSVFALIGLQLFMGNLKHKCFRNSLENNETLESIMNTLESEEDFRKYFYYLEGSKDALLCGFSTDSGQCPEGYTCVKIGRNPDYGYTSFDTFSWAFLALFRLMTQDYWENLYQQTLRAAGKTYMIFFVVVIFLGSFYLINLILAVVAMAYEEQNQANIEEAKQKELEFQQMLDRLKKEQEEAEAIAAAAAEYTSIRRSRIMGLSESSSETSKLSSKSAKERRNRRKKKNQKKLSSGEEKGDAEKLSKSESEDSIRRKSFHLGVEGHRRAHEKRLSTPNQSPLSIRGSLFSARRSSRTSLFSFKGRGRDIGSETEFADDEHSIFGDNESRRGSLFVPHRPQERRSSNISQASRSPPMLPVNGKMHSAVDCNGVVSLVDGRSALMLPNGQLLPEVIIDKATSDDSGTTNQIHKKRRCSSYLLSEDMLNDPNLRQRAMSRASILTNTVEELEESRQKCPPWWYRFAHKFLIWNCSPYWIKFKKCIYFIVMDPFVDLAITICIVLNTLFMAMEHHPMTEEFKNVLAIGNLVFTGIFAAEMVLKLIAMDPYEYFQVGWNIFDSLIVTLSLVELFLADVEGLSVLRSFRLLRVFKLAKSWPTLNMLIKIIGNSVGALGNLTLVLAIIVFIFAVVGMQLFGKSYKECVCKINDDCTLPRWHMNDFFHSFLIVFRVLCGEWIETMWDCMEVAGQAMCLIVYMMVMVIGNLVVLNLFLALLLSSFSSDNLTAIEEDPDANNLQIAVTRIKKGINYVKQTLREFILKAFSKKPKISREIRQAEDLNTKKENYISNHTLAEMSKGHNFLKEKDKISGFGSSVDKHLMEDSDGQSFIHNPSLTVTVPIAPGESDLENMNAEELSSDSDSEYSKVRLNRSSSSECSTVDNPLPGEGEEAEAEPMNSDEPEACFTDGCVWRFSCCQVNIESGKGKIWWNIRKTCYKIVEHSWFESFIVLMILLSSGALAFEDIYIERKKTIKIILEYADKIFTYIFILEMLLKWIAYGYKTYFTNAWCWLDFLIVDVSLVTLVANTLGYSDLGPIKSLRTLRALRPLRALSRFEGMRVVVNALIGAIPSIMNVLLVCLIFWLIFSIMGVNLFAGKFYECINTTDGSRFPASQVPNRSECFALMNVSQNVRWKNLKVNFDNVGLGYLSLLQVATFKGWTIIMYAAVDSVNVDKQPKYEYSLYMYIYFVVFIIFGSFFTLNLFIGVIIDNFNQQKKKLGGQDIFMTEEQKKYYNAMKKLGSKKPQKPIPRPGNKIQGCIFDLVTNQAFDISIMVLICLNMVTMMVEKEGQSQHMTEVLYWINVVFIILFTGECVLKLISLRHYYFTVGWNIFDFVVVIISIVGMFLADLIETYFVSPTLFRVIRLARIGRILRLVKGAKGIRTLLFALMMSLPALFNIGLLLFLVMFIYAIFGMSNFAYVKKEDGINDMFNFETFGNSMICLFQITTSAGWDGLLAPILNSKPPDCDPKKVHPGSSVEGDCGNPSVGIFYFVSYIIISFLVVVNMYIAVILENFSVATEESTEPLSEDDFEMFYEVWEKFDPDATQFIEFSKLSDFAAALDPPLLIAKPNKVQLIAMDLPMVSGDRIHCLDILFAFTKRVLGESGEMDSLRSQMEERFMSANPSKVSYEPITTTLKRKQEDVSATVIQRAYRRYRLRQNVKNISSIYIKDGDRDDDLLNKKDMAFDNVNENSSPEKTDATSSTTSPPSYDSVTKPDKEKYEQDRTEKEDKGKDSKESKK
Format: cell-based
Text: Assays for Detecting and Measuring NaV Inhibition Properties of Compound E-VIPR Optical Membrane Potential Assay Method with Electrical Stimulation
Sodium channels are voltage-dependent proteins that can be activated by inducing membrane voltage changes by applying electric fields. The electrical stimulation instrument and methods of use are described in Ion Channel Assay Methods PCT/US01/21652, herein incorporated by reference and are referred to as E-VIPR. The instrument comprises a microtiter plate handler, an optical system for exciting the coumarin dye while simultaneously recording the coumarin and oxonol emissions, a waveform generator, a current- or voltage-controlled amplifier, and a device for inserting electrodes in well. Under integrated computer control, this instrument passes user-programmed electrical stimulus protocols to cells within the wells of the microtiter plate.
24 hours before the assay on E-VIPR, HEK cells expressing human NaV subtype, like NaV 1.7, are seeded in 384-well poly-lysine coated plates at 15,000-20,000 cells per well. Other subtypes are performed in an analogous mode in a cell line expressing the NaV of interest. HEK cells are grown in media (exact composition is specific to each cell type and NaV subtype) supplemented with 10% FBS (Fetal Bovine Serum, qualified; GibcoBRL #16140-071) and 1% Pen-Strep (Penicillin-Streptomycin; GibcoBRL #15140-122). Cells are grown in vented cap flasks, in 90% humidity and 10% CO2, to 100% confluence. They are usually split by trypsinization 1:10 or 1:20, depending on scheduling needs, and grown for 2-3 days before the next split.
Bath 1 buffer. Glucose 10 mM (1.8 g/L), Magnesium Chloride (Anhydrous), 1 mM (0.095 g/L), Calcium Chloride, 2 mM (0.222 g/L), HEPES 10 mM (2.38 g/L), Potassium Chloride, 4.5 mM (0.335 g/L), Sodium Chloride 160 mM (9.35 g/L).
Hexyl Dye Solution: Bath 1 Buffer+0.5% β-cyclodextrin (make this prior to use, Sigma #C4767), 8 μM CC2-DMPE+2.5 μM DiSBAC6(3). To make the solution Add volume of 10% Pluronic F127 stock equal to volumes of CC2-DMPE+DiSBAC6(3). The order of preparation is first mix Pluronic and CC2-DMPE, then add DiSBAC6(3) while vortexing, then add Bath 1+β-Cyclodextrin.
1) Pre-spot compounds (in neat DMSO) into compound plates. Vehicle control (neat DMSO), the positive control (20 mM DMSO stock tetracaine, 125 μM final in assay) and test compounds are added to each well at 160× desired final concentration in neat DMSO. Final compound plate volume will be 80 μL (80-fold intermediate dilution from 1 μL DMSO spot; 160-fold final dilution after transfer to cell plate). Final DMSO concentration for all wells in assay is 0.625%.
2) Prepare Hexyl Dye Solution.
3) Prepare cell plates. On the day of the assay, medium is aspirated and cells are washed three times with 100 μL of Bath 1 Solution, maintaining 25 μL residual volume in each well.
4) Dispense 25 μL per well of Hexyl Dye Solution into cell plates. Incubate for 20-35 minutes at room temp or ambient conditions.
5) Dispense 80 μL per well of Bath 1 into compound plates. Acid Yellow-17 (1 mM) is added and Potassium Chloride can be altered from 4.5 to 20 mM depending on the NaV subtype and assay sensitivity.
6) Wash cell plates three times with 100 μL per well of Bath1, leaving 25 μL of residual volume. Then transfer 25 uL per well from Compound Plates to Cell Plates. Incubate for 20-35 minutes at room temp/ambient condition
7) Read Plate on E-VIPR. Use the current-controlled amplifier to deliver stimulation wave pulses for typically 9 seconds and a scan rate of 400 Hz. A pre-stimulus recording is performed for 0.5 seconds to obtain the un-stimulated intensities baseline. The stimulatory waveform is applied for 9 seconds followed by 0.5 seconds of post-stimulation recording to examine the relaxation to the resting state.
With Cc1cc(C(=O)N2CCC3(CC2)c2ccc(C(=O)C(F)(F)F)n2CCN3C)ccc1-c1c[nH]nc1C(F)(F)F [Compound 303] the IC50 was > 5 µM. With CN1CCn2c(ccc2C(F)(F)C(F)(F)F)C12CCN(C(=O)c1ccc(CC(C)(C)O)c(F)c1)CC2 [Compound 226] the IC50 was ≤ 2 µM. In the case of CCOc1cc(C(=O)N2CCC3(CC2)NCCn2c(C(F)(F)F)ccc23)ccc1OC [Compound 618], the IC50 is reported as > 5 µM. With Cc1cc(C(=O)N2CCC3(CC2)NCC(C)n2c(C(=O)C(F)(F)F)ccc23)ccc1C(C)(C)O (stereo not shown) [Compound 235] the IC50 was ≤ 2 µM. For Cc1cc(C(=O)N2CCC3(CC2)c2ccc(C(=O)C(F)(F)F)n2C(C)CN3C)ccc1OC(C)C (stereo not shown) [Compound 355], the IC50 was ≤ 2 µM. COc1nc(C(=O)N2CCC3(CC2)c2c(Cl)cc(C(F)(F)F)n2CCN3C)ccc1OC(C)C [Compound 379] was tested, and the IC50 was ≤ 2 µM. With COc1ccc(C(=O)N2CCC3(CC2)NC(C)(C)Cn2c(C(=O)C(F)(F)F)ccc23)cc1C(F)(F)F [Compound 377] the IC50 was ≤ 2 µM. With CC1(C)Cn2c(C(=O)C(F)(F)F)ccc2C2(CCN(C(=O)c3ccc(S(=O)(=O)C(F)(F)F)cc3)CC2)N1 [Compound 396] the IC50 was ≤ 2 µM. Compound CCCOc1ccc(C(=O)N2CCC3(CC2)c2ccc(Cl)n2CCN3C)cc1OC [Compound 698] has an IC50 of 2 to 5 µM. Cc1cc(C(=O)N2CCC3(CC2)c2ccc(C(=O)C(F)(F)F)n2CCN3C)ccc1-c1ccccc1 [Compound 55] was tested, and the IC50 was ≤ 2 µM. In the case of CC(C)CCOc1ccc(C(=O)N2CCC3(CC2)c2ccc(C(=O)C(F)(F)F)n2C(C)CN3C)cc1 (stereo not shown) [Compound 646], the IC50 is reported as ≤ 2 µM. For CC(=O)c1ccc2n1CCN(C)C21CCN(C(=O)c2ccc(OC(C)C)c(CO)c2)CC1 [Compound 558], the IC50 was > 5 µM. COc1ccc(C(=O)N2CCC3(CC2)c2ccc(C(=O)C4(C)CC4)n2CCN3C)cc1C [Compound 276] was tested, and the IC50 was ≤ 2 µM. CC(C)Oc1ccc(C(=O)N2CCC3(CC2)NCCn2c(C(F)(F)F)ccc23)cc1CO [Compound 549] was tested, and the IC50 was ≤ 2 µM. With CN1CCn2c(C(=O)C3(C)CC3)ccc2C12CCN(C(=O)c1ccc(O)c(Cl)c1)CC2 [Compound 19] the IC50 was ≤ 2 µM. With COc1ccc(C(=O)N2CCC3(CC2)NC(C)(C)Cn2c(C(=O)C(F)(F)F)ccc23)c(F)c1 [Compound 312] the IC50 was ≤ 2 µM. With CN1CCn2c(C(=O)C(F)(F)F)ccc2C12CCN(C(=O)c1ccc(C3CCCCC3)cn1)CC2 [Compound 638] the IC50 was ≤ 2 µM. For CC(C)Oc1ccc(C(=O)N2CCC3(CC2)c2ccc(C(=O)C(C)(C)C)n2CCN3C)cc1F [Compound 619], the IC50 was ≤ 2 µM. Cc1cc(C(F)F)n2ncc(C(=O)N3CCC4(CC3)c3ccc(C(=O)C(C)(C)C)n3CCN4C)c2n1 [Compound 248] was tested, and the IC50 was ≤ 2 µM. CCCOc1ccc(C(=O)N2CCC3(CC2)c2ccc(C(F)(F)F)n2CCN3C)cc1OC [Compound 190] was tested, and the IC50 was ≤ 2 µM. COc1cc(C(=O)N2CCC3(CC2)N[C@H]2CCCC[C@H]2n2cccc23)ccc1OCCC(C)C [Compound 247] was tested, and the IC50 was ≤ 2 µM. For O=C(c1ccccc1Oc1ccccc1)N1CCC2(CC1)NCCn1c(C(F)(F)F)ccc12 [Compound 43], the IC50 was > 5 µM. In the case of COc1ccc(C(=O)N2CCC3(CC2)c2ccc(C(=O)C(F)(F)F)n2C[C@H](C)N3C)nc1C [Compound 485], the IC50 is reported as ≤ 2 µM. Cc1cc(C(=O)N2CCC3(CC2)c2cccn2CCN3C)ccc1C(C)(C)O [Compound 457] was tested, and the IC50 was > 5 µM. With CC(C)Oc1ccc(C(=O)N2CCC3(CC2)c2ccc(C(F)(F)F)n2CCN3C)cc1 [Compound 488] the IC50 was ≤ 2 µM. CCc1ccc(C(=O)N2CCC3(CC2)c2c(F)cc(C(F)(F)F)n2CCN3C)cc1OC [Compound 668] was tested, and the IC50 was ≤ 2 µM. For COc1ccc(C(=O)N2CCC3(CC2)NC(C)(C)Cn2c(C(=O)C(F)(F)F)ccc23)cc1C [Compound 612], the IC50 was ≤ 2 µM. With CN1CCn2c(C(=O)C(F)(F)F)ccc2C12CCN(C(=O)c1ccc(-c3ccccc3F)cn1)CC2 [Compound 725] the IC50 was > 5 µM. In the case of CCCCCc1ccc(C(=O)N2CCC3(CC2)c2ccc(C(C)=O)n2CCN3C)cc1 [Compound 92], the IC50 is reported as ≤ 2 µM. In the case of O=C(c1ccc(S(=O)(=O)NC2CC2)cc1)N1CCC2(CC1)NCCn1c(C(F)(F)F)ccc12 [Compound 569], the IC50 is reported as ≤ 2 µM. For CN1CCn2c(C(=O)C(F)(F)F)ccc2C12CCN(C(=O)c1ccc(C(O)COCC(F)(F)F)cc1)CC2 (stereo not shown) [Compound 72], the IC50 was ≤ 2 µM. CCCOc1ccc(C(=O)N2CCC3(CC2)c2ccc(C(=O)C(F)(F)F)n2CCN3C)cc1OC [Compound 538] was tested, and the IC50 was ≤ 2 µM. For CC(=O)c1cc2n(c1)CC(C)(C)NC21CCN(C(=O)c2ccc(OC(C)C)c(Cl)c2)CC1 [Compound 30], the IC50 was > 5 µM. CCc1ccc(C(=O)N2CCC3(CC2)c2ccc(C(=O)C(F)(F)F)n2CCN3C)nc1 [Compound 331] was tested, and the IC50 was > 5 µM. COc1cc(C(=O)N2CCC3(CC2)c2cc(C(F)(F)F)c(C(F)(F)F)n2CCN3C)ccc1OC(C)C [Compound 48] was tested, and the IC50 was ≤ 2 µM. COc1cc(C(=O)N2CCC3(CC2)c2ccc(C(F)(F)F)n2CCN3CC(F)(F)F)ccc1OC(C)C [Compound 59] was tested, and the IC50 was ≤ 2 µM. For Cc1cc(C(=O)N2CCC3(CC2)c2cccn2CCN3Cc2ccccc2)ccc1OC(C)C [Compound 39], the IC50 was ≤ 2 µM. With CC(C)Oc1ccc(C(=O)N2CCC3(CC2)c2ccc(C(F)(F)F)n2CCN3C)nc1 [Compound 22] the IC50 was > 5 µM. In the case of COc1cc(C(=O)N2CCC3(CC2)c2ccc(C(F)(F)F)n2CCN3C)ccc1C(C)(C)CO [Compound 151], the IC50 is reported as ≤ 2 µM. CC(=O)c1ccc2n1CCN(C)C21CCN(C(=O)c2ccc(OC(C)C)c(C#N)c2)CC1 [Compound 285] was tested, and the IC50 was 2 to 5 µM. In the case of COc1ccc(C(=O)N2CCC3(CC2)c2ccc(C(=O)C(C)C)n2CCN3C)cc1C(F)(F)F [Compound 735], the IC50 is reported as ≤ 2 µM. With CCOc1ccc(C(=O)N2CCC3(CC2)c2ccc(C(C)=O)n2CCN3C)cc1OCC [Compound 416] the IC50 was > 5 µM. CC(=O)c1cc2n(c1)CC(C)(C)NC21CCN(C(=O)c2ccc(OC(C)C)c(C)c2)CC1 [Compound 454] was tested, and the IC50 was > 5 µM. With COc1cc(C(=O)N2CCC3(CC2)c2ccc(C(=O)C(F)(F)F)n2CCN3C)ccc1OC(C)C [Compound 315] the IC50 was ≤ 2 µM. CC(C)Nc1ncccc1C(=O)N1CCC2(CC1)c1ccc(C(F)(F)F)n1CCN2C [Compound 718] was tested, and the IC50 was 2 to 5 µM. In the case of CN1CCn2c(C(F)(F)F)ccc2C12CCN(C(=O)c1ccnc3ccccc13)CC2 [Compound 49], the IC50 is reported as ≤ 2 µM. For CN1CCn2c(C(F)(F)F)ccc2C12CCN(C(=O)c1ccc(S(=O)(=O)C(C)(C)C)cc1)CC2 [Compound 441], the IC50 was ≤ 2 µM. Cc1cc(C(=O)N2CCC3(CC2)NC(C)(C)Cn2c(C(=O)C(F)(F)F)ccc23)ccc1O [Compound 318] was tested, and the IC50 was ≤ 2 µM. In the case of CC(C)Oc1ccc(C(=O)N2CCC3(CC2)NC(C)(C)Cn2c(C(F)(F)F)ccc23)cc1Cl [Compound 37], the IC50 is reported as ≤ 2 µM. In the case of Cc1cc(C(=O)N2CCC3(CC2)c2ccc(C(=O)C(F)(F)F)n2C(C)(C)CN3C)ccc1OC(C)C [Compound 437], the IC50 is reported as ≤ 2 µM. COC(=O)N1CCn2c(C(F)(F)F)ccc2C12CCN(C(=O)c1ccc(OC(C)C)c(C)c1)CC2 [Compound 460] was tested, and the IC50 was ≤ 2 µM. For COc1cc(C(=O)N2CCC3(CC2)c2c(Cl)cc(C(F)(F)F)n2CCN3C)ccc1COCC(F)(F)F [Compound 687], the IC50 was ≤ 2 µM. In the case of COc1cc(C(=O)N2CCC3(CC2)NCC(C)(C)n2c(C(F)(F)F)ccc23)ccc1OC(C)C [Compound 405], the IC50 is reported as ≤ 2 µM. CC[C@H](C)Oc1ccc(C(=O)N2CCC3(CC2)c2ccc(Cl)n2CCN3C)cc1OC [Compound 38] showed an IC50 of 2 to 5 µM. For CN1CCn2c(C(=O)C(F)(F)F)ccc2C12CCN(C(=O)c1ccc(Cc3ccccc3)cc1)CC2 [Compound 71], the IC50 was ≤ 2 µM.

Source: patent US8916565B2, “Pyrrolopyrazine-spirocyclic piperidine amides as modulators of ion channels” (priority 2011, dated 2014)
